Measurements from patent publication US4820707A, “2,6-piperazinedione compounds” (ADIR Et Cie, priority 1986, dated 1989).
Counter-ions that a name gives are not always drawn.

What was measured:
Format in all cases: in vivo
[1] = Inhibition of the active conditioned avoidance response in rats; conditions: i.p.
Text: The results obtained with the compounds of general formula I during the various experiments employing the method described by Courvoisier et al. in Arch. Int. Pharmacodyn., 1953, 92, p. 305-361 and by Janssen et al. in Arzneim, Forsch, 1965, 15, p.

[2] = Anxiolytic activity by the "staircase" test; design: key to % variation in the steps climbed: NS: not significant; conditions: rats
Text: The anxiolytic activity of the compounds of the invention was investigated in rats according to the method described by Thiebot, Soubrie and Boissier in J. Pharmacol. 1976, 7, (1), p. 87-102. In this test, behavior involving rearing movements is associated with a state of distress of the animal. The number of steps climbed represents the normal exploratory behavior of the rat introduced into the enclosure. Normally, an efficacious anxiolytic compound should decrease, during the test which lasts 3 minutes, the number of rearing movements without modifying the number of steps climbed, or on the contrary should increase this latter parameter.

[3] = Anxiolytic activity by the four-plates test; conditions: mice; for change in vivo at 5 mg/kg: 5 mg.kg^-1; for % increase in the responses: p.o.
Protocol: The anxiolytic activity of the compounds of the general formula I was investigated in mice according to the method of Aron Simon Larousse and Boissier described in Neuropharmacology (1971) 10 p. 459-469). After treatment of the animals by means of different doses of the compounds of the invention administered intraperitoneally or orally, the increase in the percentage of transitions during the exploration of the base of the test cage, in the presence of electric shocks, was assessed.

[4] = Anxiolytic activity by MacMillan's conflict test; conditions: rats, i.p., vs physiological saline; for % variation in the unpunished responses: NS (not significant); for % variation in the punished responses: S (significant)
Text: In these conditioning experiments which operate in the presence of a food reward, performed in rats according to the method described by MacMillan in Fed. Proceedings, 1975, 34, (9), p. 1870-1879, two parameters in the animal's behavioral responses are considered. The first parameter is the variation in the level of punished responses, in the presence of an electric shock, under the influence of the treatment in comparison with the level of punished responses under the influence of physiological saline. The second parameter is the variation in the level of unpunished responses, without an electric shock, under the influence of the same treatment, in comparison with the level of unpunished responses when physiological saline is administered. A specific anxiolytic effect is established when, after the administration of a substance, the level of only the punished responses is increased.

[5] = Inhibition of aggression in isolated and bulbectomized rats
Protocol: The inhibition of aggression was assessed according to the method described by Vergnes and Karli in C.R. Soc. Biol. 1963, 157, p. 1061. The effect on the aggression is assessed in terms of the percentage of animals which became non-killers after treatment.

[6] = Inhibition of isolation-induced aggression in mice; conditions: Mus musculus, ip, read-out: Inhibitory ED50 (effective dose inhibiting 50% of the aggressive animals)
Text: The compounds of general formula I inhibit the attacking behavior of mice rendered aggressive by isolation according to the method described by Yen, Stanger and Millman in Arch. Int. Pharmacodyn. 1959, 123, p. 179-185.

[7] = Mus musculus, ip, i.p., read-out: % increase in the responses (transitions)
[8] = Mus musculus, ip, i.p., 25 mg.kg^-1, read-out: % increase in the responses (transitions)
[9] = Mus musculus, ip, i.p., 10 mg.kg^-1, read-out: % increase in the responses (transitions)

Structure (SMILES): COc1ccccc1N1CCN(CCCN2C(=O)CN(Cc3ccccn3)CC2=O)CC1.Cl.Cl.Cl.Cl [Example 18, 4-(2-Pyridylmethyl)-1-{3-[1-(2-methoxyphenyl)-4-piperazinyl]propyl}-2,6-piperazinedione tetrahydrochloride]
- % ICAR (percentage inhibition of the conditioned avoidance response) ([1]; 10 mg.kg^-1): 18%
- % ICAR (percentage inhibition of the conditioned avoidance response) ([1]; 15 mg.kg^-1): 35%
- % ICAR (percentage inhibition of the conditioned avoidance response) ([1]; dose not printed in this line): 56%

Structure (SMILES): O=C1CN(Cc2ccccc2Cl)CC(=O)N1CCCN1CCN(c2cccc(C(F)(F)F)c2)CC1 [Example 4, 4-(2-Chlorobenzyl)-1-{3-[1-(3-trifluoromethylphenyl)-4-piperazinyl]propyl}-2,6-piperazinedione dimandelate]
- % variation in the rearing movements ([2]; i.p., 10 mg.kg^-1): -47%
- % variation in the steps climbed ([2]; i.p., 10 mg.kg^-1): NS
- change in vivo at 5 mg/kg [3, 7]: 37%
- change in vivo at 25 mg/kg [3, 8]: 67%
- % increase in the responses ([3]; 25 mg.kg^-1): 35%
- % increase in the responses ([3]; 50 mg.kg^-1): 58%

Structure (SMILES): COc1ccccc1CN1CC(=O)N(CCN2CCN(c3cccc(C(F)(F)F)c3)CC2)C(=O)C1 [Example 16, 4-(2-Methoxybenzyl)-1-{2-[1-(3-trifluoromethylphenyl)-4-piperazinyl]ethyl}-2,6-piperazinedione trihydrochloride]
- change in vivo at 10 mg/kg [3, 9]: 41%

Structure (SMILES): COc1ccccc1CN1CC(=O)N(CCCN2CCN(c3cccc(C(F)(F)F)c3)CC2)C(=O)C1.Cl.Cl [Example 15, 4-(2-Methoxybenzyl)-1-{3-[1-(3-trifluoromethylphenyl)-4-piperazinyl]propyl}-2,6-piperazinedione dihydrochloride]
- % variation in the unpunished responses ([4]; 10 mg.kg^-1): +37%
- % variation in the punished responses ([4]; 10 mg.kg^-1): +41%
- % variation in the rearing movements ([2]; i.p., 10 mg.kg^-1): -43%
- % variation in the steps climbed ([2]; i.p., 10 mg.kg^-1): NS
- % variation in the rearing movements ([2]; i.p., 20 mg.kg^-1): -64%
- % variation in the steps climbed ([2]; i.p., 20 mg.kg^-1): NS
- % of non-killer animals ([5]; i.p., 25 mg.kg^-1): 64%
- change in vivo at 20 mg/kg ([3]; Mus musculus, ip, i.p., 20 mg.kg^-1, read-out: % increase in the responses (transitions)): 52%
- % increase in the responses ([3]; 10 mg.kg^-1): 61%
- % increase in the responses ([3]; 50 mg.kg^-1): 90%

Structure (SMILES): O=C1CN(C(c2ccccc2)c2ccc(Cl)cc2)CC(=O)N1CCCN1CCN(c2cccc(C(F)(F)F)c2)CC1 (stereo not shown) [Example 26, 4-(4-Chlorodiphenylmethyl)-1-{3-[1-(3-trifluoromethylphenyl)-4-piperazinyl]propyl}-2,6-piperazinedione dicitrate]
- % increase in the responses ([3]; 25 mg.kg^-1): 69%

Structure (SMILES): COc1ccccc1CN1CC(=O)N(CCCCN2CCN(c3cccc(C(F)(F)F)c3)CC2)C(=O)C1.Cl.Cl [Example 6, 4-(2-Methoxybenzyl)-1-{4-[1-(3-trifluoromethylphenyl)-4-piperazinyl]butyl}-2,6-piperazinedione dihydrochloride]
- ED50 [6]: 4.74 mg/kg
- change in vivo at 25 mg/kg [3, 8]: 37%

Structure (SMILES): Cc1ccc(N2CCN(CCCN3C(=O)CN(Cc4ccccn4)CC3=O)CC2)cc1.Cl.Cl.Cl [Example 20, 4-(2-Pyridylmethyl)-1-{3-[1-(4-methylphenyl)-4-piperazinyl]propyl}-2,6-piperazinedione trihydrochloride]
- % variation in the rearing movements ([2]; i.p., 2,5 mg.kg^-1): -43%
- % variation in the steps climbed ([2]; i.p., 2,5 mg.kg^-1): NS

Structure (SMILES): Cl.Cl.Cl.O=C1CN(Cc2ccccc2)CC(=O)N1CCCCN1CCN(c2ncccn2)CC1 [Example 5, 4-Benzyl-1-{4-[1-(2-pyrimidinyl)-4-piperazinyl]butyl}-2,6-piperazinedione trihydrochloride]
- % variation in the rearing movements ([2]; i.p., 1,25 mg.kg^-1): -40%
- % variation in the steps climbed ([2]; i.p., 1,25 mg.kg^-1): NS

Structure (SMILES): Cl.Cl.O=C1CN(Cc2ccccc2)CC(=O)N1CCN1CCN(c2cccc(C(F)(F)F)c2)CC1 [Example 10, 4-Benzyl-1-{2-[1-(3-trifluoromethylphenyl)-4-piperazinyl]ethyl}-2,6-piperazinedione dihydrochloride]
- % variation in the unpunished responses ([4]; 5 mg.kg^-1): +18%
- % variation in the punished responses ([4]; 5 mg.kg^-1): +67%
- % of non-killer animals ([5]; i.p., 25 mg.kg^-1): 66%
- change in vivo at 25 mg/kg [3, 8]: 85%

Structure (SMILES): COc1ccccc1CN1CC(=O)N(CCCN2CCN(c3ccc(C)cc3)CC2)C(=O)C1 [Example 14, 4-(2-Methoxybenzyl)-1-{3-[1-(4-methylphenyl)-4-piperazinyl]propyl}-2,6-piperazinedione]
- % variation in the unpunished responses ([4]; 5 mg.kg^-1): +14%
- % variation in the punished responses ([4]; 5 mg.kg^-1): +48%

Structure (SMILES): O=C1CN(C2CCCCC2)CC(=O)N1CCCN1CCN(c2cccc(C(F)(F)F)c2)CC1 [Example 27, 4-Cyclohexyl-1-{3-[1-(3-trilfuoromethylphenyl)-4-piperazinyl]propyl}-2,6-piperazinedione dihydrochloride]
- % variation in the rearing movements ([2]; i.p., 2,5 mg.kg^-1): -41%
- % variation in the steps climbed ([2]; i.p., 2,5 mg.kg^-1): NS
- change in vivo at 25 mg/kg [3, 8]: 73%

Structure (SMILES): O=C1CN(Cc2ccccc2F)CC(=O)N1CCCN1CCN(c2ccc(C(F)(F)F)cn2)CC1 [Example 30, 4-(2-Fluorobenzyl)-1-{3-[1-(5-trifluoromethyl-2-pyridinyl)-4-piperazinyl]propyl}-2,6-piperazinedione dihydrochloride]
- change in vivo at 5 mg/kg [3, 7]: 40%

Structure (SMILES): COc1cccc(CN2C(=O)CN(CCCN3CCN(c4cccc(C(F)(F)F)c4)CC3)CC2=O)c1 [Example 29, 1-(3-Methoxybenzyl)-4-{3-[1-(3-trifluoromethylphenyl)-4-piperazinyl]propyl}-2,6-piperazinedione diphosphate]
- change in vivo at 25 mg/kg [3, 8]: 49%

Structure (SMILES): Cl.Cl.Cl.O=C1CN(Cc2ccccn2)CC(=O)N1CCCN1CCN(c2ccccc2Cl)CC1 [Example 17, 4-(2-Pyridylmethyl)-1-{3-[1-(2-chlorophenyl)-4-piperazinyl]propyl}-2,6-piperazinedione trihydrochloride]
- ED50 [6]: 6.11 mg/kg

Structure (SMILES): O=C1CN(C(c2ccccc2)c2ccccc2)CC(=O)N1CCCN1CCN(c2cccc(C(F)(F)F)c2)CC1 [Example 24, 4-Diphenylmethyl-1-{3-[1-(3-trifluoromethylphenyl)-4-piperazinyl]propyl}-2,6-piperazinedione dimandelate]
- change in vivo at 25 mg/kg [3, 8]: 62%

Structure (SMILES): Cc1ccccc1N1CCN(CCCN2C(=O)CN(C(c3ccccc3)c3ccccc3)CC2=O)CC1 [Example 23, 4-Diphenylmethyl-1-{3-[1-(2-methylphenyl)-4-piperazinyl]propyl}-2,6-piperazinedione trimethanesulfonate]
- change in vivo at 10 mg/kg [3, 9]: 47%
- change in vivo at 25 mg/kg [3, 8]: 77%

Structure (SMILES): Cl.Cl.Cl.O=C1CN(Cc2ccccn2)CC(=O)N1CCCN1CCN(c2ccc(F)cc2)CC1 [Example 7, 4-(2-Pyridylmethyl)-1-{3-[1-(4-fluorophenyl)-4-piperazinyl]propyl}-2,6-piperazinedione trihydrochloride]
- % of non-killer animals ([5]; i.p., 25 mg.kg^-1): 67%
- % ICAR (percentage inhibition of the conditioned avoidance response) ([1]; 10 mg.kg^-1): 30%
- % ICAR (percentage inhibition of the conditioned avoidance response) ([1]; 15 mg.kg^-1): 48%
- % ICAR (percentage inhibition of the conditioned avoidance response) ([1]; 20 mg.kg^-1): 79%

Structure (SMILES): Cl.Cl.Cl.O=C1CN(Cc2cccnc2)CC(=O)N1CCCN1CCN(c2cccc(Cl)c2)CC1 [Example 22, 4-(3-Pyridylmethyl)-1-{3-[1-(3-chlorophenyl)-4-piperazinyl]propyl}-2,6-piperazinedione trihydrochloride]
- % of non-killer animals ([5]; i.p., 12,5 mg.kg^-1): 83%
- change in vivo at 10 mg/kg [3, 9]: 44%

Structure (SMILES): O=C1CN(CCCN2CCN(c3cccc(C(F)(F)F)c3)CC2)CC(=O)N1Cc1ccccc1 [Example 28, 1-Benzyl-4-{3-[1-(3-trifluoromethylphenyl)-4-piperazinyl]propyl}-2,6-piperazinedione diphosphate]
- change in vivo at 25 mg/kg [3, 8]: 82%
